Measured values reported in PMC4356144, “The kinase LYK5 is a major chitin receptor in Arabidopsis and forms a chitin-induced complex with related kinase CERK1” (eLife, 2014).

Assays:
[1] = target: T1, AtLYK5 (full-length, HA-tagged) (Arabidopsis thaliana, UniProt O22808); experiment: competition of chitin magnetic bead pull-down, anti-HA immunoblot; type: biochemical; conditions: protoplasts treated with 10 µM oligomer for 15 min before harvest
T1 construct: gene LYK5; full-length cDNA, HA tag, 35S promoter, Arabidopsis Col-0 protoplasts
T1 sequence (O22808 27-664): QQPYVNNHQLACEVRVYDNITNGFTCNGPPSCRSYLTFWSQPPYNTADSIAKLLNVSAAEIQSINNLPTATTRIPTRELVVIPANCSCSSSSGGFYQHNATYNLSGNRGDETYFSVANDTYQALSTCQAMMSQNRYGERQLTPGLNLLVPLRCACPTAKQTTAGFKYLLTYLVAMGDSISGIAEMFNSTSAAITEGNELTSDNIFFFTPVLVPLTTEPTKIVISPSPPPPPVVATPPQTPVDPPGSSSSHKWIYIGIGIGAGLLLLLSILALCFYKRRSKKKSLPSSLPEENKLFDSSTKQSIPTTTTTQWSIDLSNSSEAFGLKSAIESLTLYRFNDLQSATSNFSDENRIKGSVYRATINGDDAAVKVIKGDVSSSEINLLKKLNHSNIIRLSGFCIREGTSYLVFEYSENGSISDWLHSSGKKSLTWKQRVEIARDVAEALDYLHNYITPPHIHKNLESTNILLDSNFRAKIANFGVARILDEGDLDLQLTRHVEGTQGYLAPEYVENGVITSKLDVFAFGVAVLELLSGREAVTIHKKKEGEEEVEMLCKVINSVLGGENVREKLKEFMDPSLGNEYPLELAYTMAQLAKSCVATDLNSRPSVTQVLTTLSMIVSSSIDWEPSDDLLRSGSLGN

[2] = target: T2, AtLYK4 (full-length, HA-tagged) (Arabidopsis thaliana, UniProt O64825); experiment: as above; type: biochemical; conditions: protoplasts treated with 10 µM oligomer for 15 min before harvest
T2 construct: gene LYK4; full-length cDNA, HA tag, 35S promoter, Arabidopsis Col-0 protoplasts
T2 sequence (O64825 23-612): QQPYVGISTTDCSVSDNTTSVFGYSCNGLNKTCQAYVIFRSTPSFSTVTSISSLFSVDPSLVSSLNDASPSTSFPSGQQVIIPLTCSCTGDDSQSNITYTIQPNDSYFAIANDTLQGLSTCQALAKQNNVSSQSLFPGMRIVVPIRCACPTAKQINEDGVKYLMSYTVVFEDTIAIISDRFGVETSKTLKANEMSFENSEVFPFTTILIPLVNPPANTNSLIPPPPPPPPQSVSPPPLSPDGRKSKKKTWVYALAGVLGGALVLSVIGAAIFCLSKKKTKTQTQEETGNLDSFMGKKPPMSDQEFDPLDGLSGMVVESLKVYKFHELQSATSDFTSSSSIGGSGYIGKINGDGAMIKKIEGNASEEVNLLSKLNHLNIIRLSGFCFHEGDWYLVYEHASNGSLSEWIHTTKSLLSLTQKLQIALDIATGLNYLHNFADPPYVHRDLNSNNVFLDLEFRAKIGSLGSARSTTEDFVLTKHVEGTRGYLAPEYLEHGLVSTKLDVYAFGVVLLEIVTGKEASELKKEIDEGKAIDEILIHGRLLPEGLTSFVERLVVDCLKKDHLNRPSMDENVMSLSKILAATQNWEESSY

[3] = target: T3, wheat germ agglutinin (WGA); experiment: isothermal titration calorimetry; type: binding; conditions: 10 mM HEPES pH 7.5, 100 mM NaCl, 25°C
T3 construct: gene WGA1

AtCERK1 (ectodomain) = target: T4, AtCERK1 (ectodomain) (Arabidopsis thaliana, UniProt A8R7E6); experiment: isothermal titration calorimetry; type: binding; conditions: 10 mM HEPES pH 7.5, 100 mM NaCl, 25°C
T4 construct: gene CERK1; ectodomain 24-231 aa, pMAL-c2G (MBP fusion), amylose resin purified, E. coli
T4 sequence (A8R7E6 24-231): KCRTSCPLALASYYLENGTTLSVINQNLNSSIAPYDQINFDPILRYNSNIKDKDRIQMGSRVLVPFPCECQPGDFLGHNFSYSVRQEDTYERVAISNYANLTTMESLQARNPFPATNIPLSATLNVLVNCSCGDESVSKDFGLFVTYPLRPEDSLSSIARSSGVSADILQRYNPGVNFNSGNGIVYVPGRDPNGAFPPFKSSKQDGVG

AtLYK5 (ectodomain) = target: T5, AtLYK5 (ectodomain) (Arabidopsis thaliana, UniProt O22808); experiment: isothermal titration calorimetry; type: binding; conditions: 10 mM HEPES pH 7.5, 100 mM NaCl, 25°C
T5 construct: gene LYK5; ectodomain 27-278 aa, E. coli BL21, pMCSG73; thrombin site before His tag, thrombin-cleaved, then Strep-Tactin purified
T5 sequence (O22808 27-278): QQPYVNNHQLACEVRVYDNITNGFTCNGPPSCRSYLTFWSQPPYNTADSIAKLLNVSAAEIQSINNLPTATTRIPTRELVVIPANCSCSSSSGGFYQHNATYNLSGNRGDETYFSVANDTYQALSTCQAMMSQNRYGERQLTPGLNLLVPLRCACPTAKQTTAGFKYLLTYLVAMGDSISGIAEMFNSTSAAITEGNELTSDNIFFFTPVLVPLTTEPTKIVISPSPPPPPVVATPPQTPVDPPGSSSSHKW

AtCERK1 kinase domain = target: T6, AtCERK1 kinase domain (Arabidopsis thaliana, UniProt A8R7E6); experiment: in vitro autophosphorylation, […] autoradiography; type: biochemical; conditions: 50 mM Tris pH 7.6, 50 mM KCl, 10 mM MnCl2, 10 mM MgCl2, room temperature; labelled compound
T6 construct: gene CERK1; intracellular kinase domain 255-617 aa, N-terminal GST, pGEX 5X-1, E. coli BL21 (DE3)
T6 sequence (A8R7E6 255-617): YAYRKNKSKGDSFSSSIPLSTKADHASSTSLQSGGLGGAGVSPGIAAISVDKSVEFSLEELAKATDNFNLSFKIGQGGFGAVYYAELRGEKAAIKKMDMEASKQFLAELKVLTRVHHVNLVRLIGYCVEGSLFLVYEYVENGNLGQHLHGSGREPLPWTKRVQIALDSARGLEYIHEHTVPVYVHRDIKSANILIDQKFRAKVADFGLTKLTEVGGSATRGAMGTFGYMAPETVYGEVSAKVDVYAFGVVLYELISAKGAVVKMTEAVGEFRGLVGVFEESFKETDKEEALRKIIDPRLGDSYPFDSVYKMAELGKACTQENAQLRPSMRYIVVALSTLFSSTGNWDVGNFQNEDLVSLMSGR

[4] = target: the molecule itself; experiment: SDS-PAGE without reducing agent and immunoblot; crude protein of transgenic Arabidopsis expressing AtLYK5-HA in Atlyk5-2, before or 15 min after 1 µM chitooctaose, boiled 5 min without DTT; anti-HA blot

In the case of `CC(=O)N[C@H]1[C@H](O[C@H]2[C@H](O)[C@@H](NC(C)=O)[C@H](O[C@H]3[C@H](O)[C@@H](NC(C)=O)[C@H](O[C@H]4[C@H](O)[C@@H](NC(C)=O)C(O)O[C@@H]4CO)O[C@@H]3CO)O[C@@H]2CO)O[C@H](CO)[C@@H](O[C@@H]2O[C@H](CO)[C@@H](O[C@@H]3O[C@H](CO)[C@@H](O[C@@H]4O[C@H](CO)[C@@H](O)[C@H](O)[C@H]4NC(C)=O)[C@H](O)[C@H]3NC(C)=O)[C@H](O)[C@H]2NC(C)=O)[C@@H]1O` (some centres unmarked) [7mer, chitoheptaose], the “competition of chitin magnetic bead pull-down, anti-HA immunoblot” value (“competition” below) [1] is reported as “The binding with AtLYK5 was strongly inhibited by chitoheptaose and chitooctaose”.

In the case of `CC(=O)N[C@H]1[C@H](O[C@H]2[C@H](O)[C@@H](NC(C)=O)[C@H](O[C@H]3[C@H](O)[C@@H](NC(C)=O)[C@H](O[C@H]4[C@H](O)[C@@H](NC(C)=O)C(O)O[C@@H]4CO)O[C@@H]3CO)O[C@@H]2CO)O[C@H](CO)[C@@H](O[C@@H]2O[C@H](CO)[C@@H](O[C@@H]3O[C@H](CO)[C@@H](O[C@@H]4O[C@H](CO)[C@@H](O[C@@H]5O[C@H](CO)[C@@H](O)[C@H](O)[C@H]5NC(C)=O)[C@H](O)[C@H]4NC(C)=O)[C@H](O)[C@H]3NC(C)=O)[C@H](O)[C@H]2NC(C)=O)[C@@H]1O` (some centres unmarked) [8mer, chitooctaose], the “competition” value [2] is reported as “the binding with AtCERK1 or AtLYK4 was only slightly reduced by the same competitors”, the Kd [3] is reported as 1600 nM and the “competition” value [1] is reported as “The binding with AtLYK5 was strongly inhibited by chitoheptaose and chitooctaose”. It also gave a Kd (AtCERK1 (ectodomain)) of 455000 nM and a Kd (AtLYK5 (ectodomain)) of 1720 nM.

With `Nc1ncnc2c1ncn2[C@@H]1O[C@H](COP(=O)(O)OP(=O)(O)OP(=O)(O)O)[C@@H](O)[C@H]1O` [ATP] the “in vitro autophosphorylation, 32P autoradiography” value (AtCERK1 kinase domain) was “the AtCERK1 kinase domain showed strong kinase activity as previously reported”.

B1: AtLYK5-HA (full length AtLYK5 under its native promoter in Atlyk5-2 mutant plants) (receptor, Arabidopsis thaliana, UniProt O22808 27-664, looked up)
chain: T1 sequence (O22808 27-664)
notes: AtLYK5 (At2g33580), Arabidopsis thaliana; genomic fragment with the 1.8 kb promoter and the coding region up to the stop codon, in pGWB13; also called wild-type AtLYK5; source: transgenic Arabidopsis (Atlyk5-2 background, native promoter), in crude extract or lysate
For B1, the “stoichiometry N” value [4] was 2.
